The subject of this test is CD2F1 mice, P388/ADR leukemia ip, median survival T/C. As to the kind of experiment: NCI In Vivo Anticancer Drug Screen. Data for tumor model P388 Leukemia resistant to Adriamycin; NSC 123127, Developed at Scr 08 (intraperitoneal) in CD2F1 (CDF1) mice. The conditions noted are these: endpoint: median survival time, higher = longer survival. As for the experimental part:
The antitumor activity of compounds was measured in mice bearing transplantable tumors. Survival or tumor size were measured and the results are expressed as the measurement made in the treated group (T) divided by the measurement made in the vehicle treated control group (C). The tumor model used in this assay is P388 Leukemia resistant to Adriamycin; NSC 123127, Developed at Scr 08 (intraperitoneal) in CD2F1 (CDF1) mice

This is an account of results in PubChem BioAssay AID322 (DTP/NCI, 2004).

Several values for one entry are separate records, joined by “and”; a condition that tells them apart may be missing. Equal values may be shown once. Toxic doses and inconclusive results are not listed.

In the case of `CN(C)/N=N/c1nc[nH]c1C(N)=O`, the T/C is 112 % of control (dose: 25.0 mg/kg/injection, schedule: Q01DX009 (ip), vehicle: distilled water + Tween-80); 124 % of control (dose: 50.0 mg/kg/injection, schedule: Q01DX009 (ip), vehicle: distilled water + Tween-80); 166 % of control (dose: 100.0 mg/kg/injection, schedule: Q01DX009 (ip), vehicle: distilled water + Tween-80); 158 % of control and 178 % of control (dose: 200.0 mg/kg/injection, schedule: Q01DX009 (ip), vehicle: distilled water + Tween-80); 201 % of control and 123 % of control (dose: 400.0 mg/kg/injection, schedule: Q01DX009 (ip), vehicle: distilled water + Tween-80).

Regarding `CN(C)[C@@H]1C(=O)C(C(=O)NCN2CCN(C(=N)N=C(N)N)CC2)=C(O)[C@@]2(O)C(=O)C3=C(O)c4c(O)cccc4[C@@](C)(O)[C@H]3C[C@@H]12`, the T/C is 113 % of control (dose: 0.62 mg/kg/injection, schedule: Q01DX005 (ip), vehicle: saline); 100 % of control (dose: 1.25 mg/kg/injection, schedule: Q01DX005 (ip), vehicle: saline); 97 % of control (dose: 1.8 mg/kg/injection, schedule: Q01DX005 (ip), vehicle: suspension in saline); 106 % of control (dose: 2.5 mg/kg/injection, schedule: Q01DX005 (ip), vehicle: saline); 115 % of control (dose: 3.0 mg/kg/injection, schedule: Q01DX005 (ip), vehicle: suspension in saline); 152 % of control (dose: 5.0 mg/kg/injection, schedule: Q01DX005 (ip), vehicle: saline). In addition, under “dose: 5.0 mg/kg/injection, schedule: Q01DX005 (ip), vehicle: suspension in saline”, the T/C is 107 % of control.

Take `Cc1cc(O)c2c(c1O)C(=O)C13C(=C2O)C(=O)C2C(O)C1C1C(O)C3C(=O)C3=C(O)c4c(O)cc(C)c(O)c4C(=O)C321` (centres undefined): the T/C is, setting by setting: (dose: 0.75 mg/kg/injection, schedule: Q01DX005 (ip), vehicle: saline with Tween-80) 101 % of control; (dose: 1.5 mg/kg/injection, schedule: Q01DX005 (ip), vehicle: saline with Tween-80) 117 % of control; (dose: 3.0 mg/kg/injection, schedule: Q01DX005 (ip), vehicle: saline with Tween-80) 122 % of control; (dose: 6.0 mg/kg/injection, schedule: Q01DX005 (ip), vehicle: saline with Tween-80) 123 % of control.

With `COc1cccc2c1C(=O)c1c(O)c3c(c(O)c1C2=O)C[C@@](O)(C(=O)CO)C[C@@H]3OC1CC(N2CCOCC2)C(O)C(C)O1` (some centres undefined), the T/C is, setting by setting: (dose: 22.0 micrograms/kg/injection, schedule: Q04DX003 (iv), vehicle: saline + alcohol) 107 % of control; (dose: 33.0 micrograms/kg/injection, schedule: Q04DX003 (iv), vehicle: saline + alcohol) 105 % of control; (dose: 50.0 micrograms/kg/injection, schedule: Q04DX003 (iv), vehicle: saline + alcohol) 102 % of control; (dose: 75.0 micrograms/kg/injection, schedule: Q04DX003 (iv), vehicle: saline + alcohol) 101 % of control.

As for `Cc1c2ccncc2c(C)c2c1[nH]c1ccccc12`, the T/C is 115 % of control (dose: 90.0 mg/kg/injection, schedule: Q04DX002 (ip), vehicle: saline with Tween-80); 156 % of control (dose: 134.0 mg/kg/injection, schedule: Q04DX002 (ip), vehicle: saline with Tween-80); 168 % of control (dose: 200.0 mg/kg/injection, schedule: Q04DX002 (ip), vehicle: saline with Tween-80); 153 % of control (dose: 300.0 mg/kg/injection, schedule: Q04DX002 (ip), vehicle: saline with Tween-80).

On to `BrC[P+](CBr)(CBr)CBr`, for which the T/C (dose: 50.0 mg/kg/injection, schedule: Q01DX005 (ip), vehicle: saline with Tween-80) was 109 % of control and 119 % of control; the T/C (dose: 100.0 mg/kg/injection, schedule: Q01DX005 (ip), vehicle: saline with Tween-80) is 115 % of control; the T/C (dose: 144.0 mg/kg/injection, schedule: Q01DX005 (ip), vehicle: saline with Tween-80) was 111 % of control; the T/C (dose: 240.0 mg/kg/injection, schedule: Q01DX005 (ip), vehicle: saline with Tween-80) was 112 % of control; the T/C (dose: 666.67 mg/kg/injection, schedule: Q01DX005 (ip), vehicle: saline with Tween-80) is 166 % of control.

Regarding `CO[C@H](/C(C)=C/C=C/C(C)=C/c1coc(C)n1)[C@H](C)[C@H]1C[C@@H](O)[C@@]2(C)O[C@H]2/C=C/[C@@H](C)[C@@H]2C[C@@H](CC(=O)O2)C[C@H]2O[C@@H]2C(=O)O1`, the T/C is 105 % of control (dose: 0.04 mg/kg/injection, schedule: Q01DX005 (ip), vehicle: Klucel (hydroxypropylcellulose) (HPC)); 109 % of control and 113 % of control (dose: 0.06 mg/kg/injection, schedule: Q01DX005 (ip), vehicle: Klucel (hydroxypropylcellulose) (HPC)); 114 % of control (dose: 0.08 mg/kg/injection, schedule: Q01DX005 (ip), vehicle: Klucel (hydroxypropylcellulose) (HPC)); 112 % of control (dose: 0.09 mg/kg/injection, schedule: Q01DX005 (ip), vehicle: Klucel (hydroxypropylcellulose) (HPC)); 117 % of control (dose: 0.1 mg/kg/injection, schedule: Q01DX005 (ip), vehicle: Klucel (hydroxypropylcellulose) (HPC)); 97 % of control (dose: 0.12 mg/kg/injection, schedule: Q01DX005 (ip), vehicle: Klucel (hydroxypropylcellulose) (HPC)). The T/C is 109 % of control (dose: 0.13 mg/kg/injection, schedule: Q01DX005 (ip), vehicle: Klucel (hydroxypropylcellulose) (HPC)); 96 % of control (dose: 0.14 mg/kg/injection, schedule: Q01DX005 (ip), vehicle: Klucel (hydroxypropylcellulose) (HPC)); 107 % of control (dose: 0.16 mg/kg/injection, schedule: Q01DX005 (ip), vehicle: Klucel (hydroxypropylcellulose) (HPC)); 102 % of control (dose: 0.2 mg/kg/injection, schedule: Q01DX005 (ip), vehicle: Klucel (hydroxypropylcellulose) (HPC)).

`COc1cc(NCc2ccc3nc(N)nc(N)c3c2C)cc(OC)c1OC`: the T/C (dose: 18.0 mg/kg/injection, schedule: Q01DX009 (ip), vehicle: distilled water + Tween-80) is 112 % of control; the T/C (dose: 27.0 mg/kg/injection, schedule: Q01DX009 (ip), vehicle: distilled water + Tween-80) was 118 % of control; the T/C (dose: 40.0 mg/kg/injection, schedule: Q01DX009 (ip), vehicle: distilled water + Tween-80) is 156 % of control; the T/C (dose: 60.0 mg/kg/injection, schedule: Q01DX009 (ip), vehicle: distilled water + Tween-80) is 184 % of control; the T/C (dose: 110.0 mg/kg/injection, schedule: Q01DX009 (ip), vehicle: distilled water + Tween-80) was 94 % of control.

For the compound `CC[C@]1(O)C[C@H]2CN(CCc3c([nH]c4ccccc34)[C@@](C(=O)OC)(c3cc4c(cc3OC)N(C)[C@H]3[C@@](O)(C(=O)OC)[C@H](OC(C)=O)[C@]5(CC)C=CCN6CC[C@]43[C@@H]65)C2)C1`, the T/C is, setting by setting: (dose: 0.5 mg/kg/injection, schedule: Q04DX003 (ip), vehicle: saline) 101 % of control; (dose: 1.0 mg/kg/injection, schedule: Q04DX003 (ip), vehicle: saline) 100 % of control; (dose: 2.0 mg/kg/injection, schedule: Q04DX003 (ip), vehicle: saline) 100 % of control; (dose: 4.0 mg/kg/injection, schedule: Q04DX003 (ip), vehicle: saline) 83 % of control; (dose: 8.0 mg/kg/injection, schedule: Q04DX003 (ip), vehicle: saline) 57 % of control.
